# Measured values as given in the PolyMetriX glass transition set.
row,glass transition temperature [°C],Compound
1,218.00,*c1ccc(Sc2ccc(Sc3ccc(N4C(=O)c5ccc(Oc6ccc7c(c6)C(=O)N(*)C7=O)cc5C4=O)cc3)s2)cc1 (repeat unit)
2,248.40,*Nc1ccc(NC(=O)c2cc(-c3ccc(C(=O)O)c(C(*)=O)c3)ccc2C(=O)O)cc1 (repeat unit)
3,107.20,*CC(COc1ccc(C(C)(C)c2ccc(O*)cc2)cc1)OC(=O)/C=C/c1ccco1 (repeat unit)
4,296.00,*Oc1ccc(NC(=O)c2ccc(-c3ccc(C(=O)Nc4ccc(Oc5ccc(C6(c7ccc(*)cc7)CC7CCC6C7)cc5)cc4)cc3)cc2)cc1 (repeat unit)
5,243.00,*Oc1ccc(NC(=O)c2cc(NC(=O)c3ccc(OC(C)=O)cc3)cc(C(=O)Nc3ccc(Oc4ccc(C(C)(C)c5ccc(*)cc5)cc4)cc3)c2)cc1 (repeat unit)
6,293.00,*Nc1ccc(Cc2ccc(NC(=O)c3cc(C(*)=O)cc(N4C(=O)C5C6CCC(C6)C5C4=O)c3)cc2)cc1 (repeat unit)
7,221.00,*CCC(=O)Nc1ccc(Cc2ccc(NC(=O)CCN3C(=O)c4ccc(C(=O)c5ccc6c(c5)C(=O)N(*)C6=O)cc4C3=O)cc2)cc1 (repeat unit)
8,250.00,*C(=O)Nc1ccc(Oc2ccc(C(C)(C)c3ccc(Oc4ccc(NC(=O)c5ccc6c(c5)C(=O)N(c5ccc(Oc7ccc8ccc(Oc9ccc(N%10C(=O)c%11ccc(*)cc%11C%10=O)cc9)cc8c7)cc5)C6=O)cc4)cc3)cc2)cc1 (repeat unit)
9,196.00,*CC(*)(C)C(=O)OC1(C)CCCN(c2ccc(/N=N/c3ccc(/C=C(\C#N)S(C)(=O)=O)cc3)cc2)C1 (repeat unit)
10,27.00,*Oc1ccc(CC(NC(=O)Cc2ccc(OC(=O)CCCCCCC(*)=O)cc2)C(=O)OCCCCCC)cc1 (repeat unit)
11,71.00,*Oc1cc(OC(=O)c2ccc(OCC)cc2)c(OC(=O)CCCC(*)=O)cc1OC(=O)c1ccc(OCC)cc1 (repeat unit)
12,179.00,*C(=O)c1ccc2c(c1)C(=O)N(c1cc(OCCCCCCCCCCCCCCCC)cc(N3C(=O)c4ccc(*)cc4C3=O)c1)C2=O (repeat unit)
13,392.00,*c1ccc(-c2cnc3cc4ncc(*)nc4cc3n2)cc1 (repeat unit)
14,257.00,*C(=O)Nc1ccc(Cc2ccc(NC(=O)c3ccc4c(c3)C(=O)N(c3ccc(/N=N/c5ccc(C)cc5)c(N5C(=O)c6ccc(*)cc6C5=O)c3)C4=O)c(C)c2)cc1C (repeat unit)
15,161.00,*Oc1ccc(C2(c3ccc(OC(*)=O)c(C)c3)CC3CCC2C3)cc1C (repeat unit)
16,45.00,*Oc1cc(OC(=O)c2ccc(OCCCC)cc2)c(OC(=O)CCCCCC(*)=O)cc1OC(=O)c1ccc(OCCCC)cc1 (repeat unit)
17,129.00,*/C=C/c1ccc2c(c1)Sc1cc(*)ccc1N2c1ccc(OCCCCCCCCCCCC)cc1 (repeat unit)
18,200.00,*/C(=C(/*)c1ccc[c]([Ge]([CH3])([CH3])[CH3])c1)c1ccccc1 (repeat unit)
19,307.00,*C1C2CC(C(=O)OCCc3ccc(N(c4ccccc4)c4ccccc4)cc3)C(C2)C1* (repeat unit)
20,115.00,*CCN(CCOC(=O)Nc1ccc(Cc2ccc(NC(=O)O*)cc2)cc1)c1ccc(/N=N/c2ccc([N+](=O)[O-])cc2)c(C)c1 (repeat unit)
21,117.00,*CCCCOC(=O)Nc1ccc(C)c(NC(=O)OCCCCn2c3ccccc3c3cc(/C=C(\C#N)C(=O)OCCCCCCOC(=O)/C(C#N)=C/c4ccc5c(c4)c4ccccc4n5*)ccc32)c1 (repeat unit)

# Second part, the compound before the results:
row,Compound,glass transition temperature [°C]
1,*CCCCCCCCCCC(=O)N(*)C (repeat unit),-12.00
2,*OP(=O)(Oc1ccc([N+](=O)[O-])cc1)Oc1ccc(S(=O)(=O)c2ccc(*)cc2)cc1 (repeat unit),114.00
3,*c1ccc2c(c1)C(=O)N(c1ccc(Oc3ccc(N4C(=O)c5ccc(C(F)(F)C(F)(F)C(F)(F)C(F)(F)C(F)(F)C(F)(F)C(*)(F)F)cc5C4=O)cc3)cc1)C2=O (repeat unit),178.00
4,*CCCCCCOC(=O)C(CCCCCCCCCCBr)C(=O)OCCCCCCOc1ccc(-n2on2-c2ccc(O*)cc2)cc1 (repeat unit),16.00
5,*c1cc(CC(=O)OCC)c(*)s1 (repeat unit),56.70
6,*CC(*)(C)C(=O)OCCOC (repeat unit),24.00
7,*CC(*)c1ccccc1C(=O)OCCC(C)C (repeat unit),68.00
8,*CC(*)n1ccnc1 (repeat unit),175.00
9,*CCCCCCCCCCCCOc1ccc(C(C)(C)c2ccc(OCOc3ccc(C(C)(C)c4ccc(O*)cc4)cc3)cc2)cc1 (repeat unit),37.00
10,*CCCS(=O)(=O)CCCCS(=O)(=O)CCCOC(=O)O* (repeat unit),43.00
11,*c1ccc2c(c1)C(=O)N(c1cccc(Oc3ccc(P(=O)(c4ccccc4)c4ccc(Oc5cccc(N6C(=O)c7ccc(C(*)(C(F)(F)F)C(F)(F)F)cc7C6=O)c5)cc4)cc3)c1)C2=O (repeat unit),243.00
12,*CCC1CC(*)C2CCCC12 (repeat unit),101.00
13,*CC(OCC)C1(C)C(=O)OC(=O)C1(*)C (repeat unit),244.00
14,*CCCCCNC(=O)CCCCC(=O)N* (repeat unit),46.50
15,*CCCN(*)C(=O)CCCCC (repeat unit),-16.00
16,*CCN(*)C(=O)CSC (repeat unit),39.00
17,*CC(*)(F)C(=O)OCC(F)(F)C(F)(F)C(F)(F)C(F)F (repeat unit),60.00
18,*c1c(C)cc(C(c2cc(C(F)(F)F)cc(C(F)(F)F)c2)c2cc(C)c(N3C(=O)c4ccc(Oc5ccc6c(c5)C(=O)N(*)C6=O)cc4C3=O)c(C)c2)cc1C (repeat unit),281.90
19,*CC(*)(C)C(=O)OCCC[Si]12O[Si]3(CC(C)C)O[Si]4(CC(C)C)O[Si](CC(C)C)(O1)O[Si]1(CC(C)C)O[Si](CC(C)C)(O2)O[Si](CC(C)C)(O3)O[Si](CC(C)C)(O4)O1 (repeat unit),85.00
20,*CCCCNC(=O)CC(=O)N* (repeat unit),73.00
21,*c1ccc(Oc2ccc(C3(c4ccc(Oc5ccc(-c6ccc(*)s6)cc5C(F)(F)F)cc4)c4ccccc4-c4ccccc43)cc2)c(C(F)(F)F)c1 (repeat unit),169.00
22,*c1ccc2c(c1)C(=O)N(c1c(C)cc(C(c3cc(C(F)(F)F)cc(C(F)(F)F)c3)c3cc(C)c(N4C(=O)c5ccc(C(*)(C(F)(F)F)C(F)(F)F)cc5C4=O)c(C)c3)cc1C)C2=O (repeat unit),288.00
23,*/C=C/C1CC(*)C2C(=O)N(CCCCCC)C(=O)C12 (repeat unit),87.00
24,*CC(*)(C)C(=O)Oc1cccc(C)c1C (repeat unit),120.00
25,*OC(CC(*)=O)C(C)(Cl)Cl (repeat unit),109.00
26,*CC(*)(C)C(=O)OCC(F)(F)C(F)(F)C(F)(F)C(F)(F)C(F)(F)C(F)(F)C(F)(F)C(F)F (repeat unit),-15.00
